One test deals with MCF-7. Nature of the test: Cytotoxicity (GI50) assay, MCF-7. The class given is cell-based, human. The note with it: MCF7; human breast cancer cell line; concentration required to decrease cell growth by 50%; read-out: Cancer cell lines GI50, MCF-7.
The test system of the next test is Tubulin. Nature of the test: Tubulin assembly induction. The class given is biochemical.
A further test relates to SNB-75. As to the kind of experiment: Cytotoxicity (GI50) assay, SNB-75. The class given is cell-based, human. The note with it: SNB-75; human glioblastoma cell line; read-out: Cancer cell lines GI50, SNB-75.
Another test has as its system MES SA DX. As to the kind of experiment: Cytotoxicity assay (CellTiter-Glo), MES SA DX. The class given is cell-based, human. As to conditions: Homo sapiens, read-out: Cancer cell lines IC50, MES SA DX.
The next test has as its system NCI/ADR-RES. Nature of the test: Cytotoxicity (GI50) assay, NCI/ADR-RES. The class given is cell-based, human. As to conditions: Homo sapiens, NCI/ADR-RES, read-out: Cancer cell lines GI50, NCI/ADR-RES.
A further test deals with OVCAR-8. Nature of the test: Cytotoxicity (GI50) assay, OVCAR-8. The class given is cell-based, human. The note with it: OVCAR-8; human ovarian cancer cell line; read-out: Cancer cell lines GI50, OVCAR-8.
A further test relates to MDA-MB-435. Nature of the test: Cytotoxicity (GI50) assay, MDA-MB-435. The class given is cell-based, human. The note with it: MDA-MB-435; human melanoma cell line; read-out: Cancer cell lines GI50, MDA-MB-435.
The test system of a further test is MES SA. Nature of the test: Cytotoxicity assay (CellTiter-Glo), MES SA. The test is classed as cell-based, human. As to conditions: MES-SA; human uterine sarcoma cell line; 72 hours, CellTiter-Glo; read-out: Cancer cell lines IC50, MES SA.
Setting [1] is: highly drug resistant human ovarian cancer cell line.
Where [2] appears, read: MES SA cell line with marked multidrug resistance, 72 hours, CellTiter-Glo.

Each structure is given as a SMILES string. Like-named read-outs stand apart in the source and are kept apart here.

For the compound `CC(=Cc1csc(C)n1)C1CC2OC2CCCC(C)C(O)C(C)C(=O)C(C)(C)C(O)CC(=O)O1` (stereo not shown) [compound 1, epothilone A], the GI50 was determined as 17 nM with MCF-7; 26 nM in the test with SNB-75; 78 nM in the test on NCI/ADR-RES; 20 nM with OVCAR-8; 16 nM in the test on MDA-MB-435. The concentration for a half-maximal effect (EC50) in the test with Tubulin was 22000 nM. For the same compound, the half-inhibitory concentration (IC50) with MES SA DX (MES-SA, 72 h) was 5.12 nM; with MES SA, 1.46 nM.
For the compound `CC(=Cc1csc(C)n1)C1CC=CCCCC(C)C(O)C(C)C(=O)C(C)(C)C(O)CC(=O)O1` (stereo not shown) [compound 3, epothilone C, reference compound], the GI50 in the test on MCF-7 came to 70 nM; with OVCAR-8 it was 110 nM. Further, a half-maximal effect with Tubulin (EC50) was put at 18000 nM. The 50% inhibitory concentration (IC50) with MES SA was 31.5 nM.
Consider `C/C(=C\c1csc(C)n1)[C@@H]1C[C@@H]2O[C@]2(C)CCC[C@H](C)[C@H](O)[C@@H](C)C(=O)C(C)(C)[C@@H](O)CC(=O)N1` [compound 5, ixabepilone, reference compound], for which, in the test with Tubulin ([…]), the concentration for a half-maximal effect (EC50) was 4500 nM. Also, the GI50 in the test on NCI/ADR-RES (setting [1]) was 1400 nM.
In the case of `C/C(=C\c1csc(C)n1)[C@@H]1C[C@@H]2N[C@]2(C)CCC[C@H](C)[C@H](O)[C@@H](C)C(=O)C(C)(C)[C@@H](O)CC(=O)O1` [compound 10, (1S,3S,7S,10R,11S,12S,16R)-7,11-Dihydroxy-8,8,10,12,16-pentamethyl-3-[(1E)-1-(2-methyl-1,3-thiazol-4-yl)prop-1-en-2-yl]-4-oxa-17-azabicyclo[14.1.0]heptadecane-5,9-dione], the GI50 with MCF-7 stood at 2 nM; in the test on NCI/ADR-RES (setting [1]), 35 nM; with OVCAR-8, 1.5 nM. In the test with Tubulin ([…]), this compound showed an EC50 of 19000 nM. Besides, the half-inhibitory concentration (IC50) amounted to 0.51 nM with MES SA DX (setting [2]) and 0.04 nM in the test on MES SA.
Consider `C/C(=C\c1csc(C)n1)[C@@H]1C[C@@H]2N(CCO)[C@]2(C)CCC[C@H](C)[C@H](O)[C@@H](C)C(=O)C(C)(C)[C@@H](O)CC(=O)O1` (stereo partly drawn) [compound 11, (1S,3S,7S,10R,11S,12S,16R)-7,11-Dihydroxy-17-(2-hydroxyethyl)-8,8,10,12,16-pentamethyl-3-[(1E)-1-(2-methyl-1,3-thiazol-4-yl)prop-1-en-2-yl]-4-oxa-17-azabicyclo[14.1.0]heptadecane-5,9-dione], for which the results for the GI50 with MCF-7, with NCI/ADR-RES (setting [1]) and in the test with OVCAR-8 were 3 nM, 55 nM and 4.5 nM, respectively. In the test on Tubulin ([…]), this compound yielded an EC50 of 18000 nM. Further, the IC50 with MES SA DX (setting [2]) is 13.7 nM; with MES SA it was 0.94 nM.
As for `CSc1nc(/C=C(\C)[C@@H]2C[C@@H]3N(CCO)[C@]3(C)CCC[C@H](C)[C@H](O)[C@@H](C)C(=O)C(C)(C)[C@@H](O)CC(=O)O2)cs1` (stereo partly drawn) [compound 12, (1S,3S,7S,10R,11S,12S,16R)-7,11-Dihydroxy-17-(2-hydroxyethyl)-8,8,10,12,16-pentamethyl-3-{(1E)-1-[2-(methylsulfanyl)-1,3-thiazol-4-yl]prop-1-en-2-yl}-4-oxa-17-azabicyclo[14.1.0]-heptadecane-5,9-dione], the GI50 in the test on MCF-7 was found to be 28 nM; in the test on SNB-75 it was 60 nM; with NCI/ADR-RES (setting [1]), 55 nM; in the test on OVCAR-8, 75 nM; in the test with MDA-MB-435, 42 nM. Further, the EC50 with Tubulin ([…]) came out at 14000 nM. Moreover, the IC50 turned out to be 0.66 nM in the test with MES SA DX (setting [2]) and 0.13 nM with MES SA.
`C/C(=C\c1csc(CN)n1)[C@@H]1C[C@@H]2N(CCO)[C@]2(C)CCC[C@H](C)[C@H](O)[C@@H](C)C(=O)C(C)(C)[C@@H](O)CC(=O)O1` (stereo partly drawn) [compound 13, (1S,3S,7S,10R,11S,12S,16R)-3-{(1E)-1-[2-(Aminomethyl)-1,3-thiazol-4-yl]prop-1-en-2-yl}-7,11-dihydroxy-17-(2-hydroxyethyl)-8,8,10,12,16-pentamethyl-4-oxa-17-azabicyclo[14.1.0]heptadecane-5,9-dione]: the GI50 with MCF-7 was 65 nM; in the test on SNB-75 it was 130 nM; in the test on NCI/ADR-RES (setting [1]) it was 2800 nM; in the test on OVCAR-8, 93 nM; with MDA-MB-435 it was 20 nM. The concentration giving a half-maximal response (EC50) in the test on Tubulin ([…]) was greater than 60000 nM. For the same compound, the IC50 in the test on MES SA DX (setting [2]) is 0.85 nM; in the test on MES SA it was 0.078 nM.
Regarding `CSc1nc(/C=C(\C)[C@@H]2C[C@@H]3N[C@]3(C)CCC[C@H](C)[C@H](O)[C@@H](C)C(=O)C(C)(C)[C@@H](O)CC(=O)O2)cs1` [compound 14, (1S,3S,7S,10R,11S,12S,16R)-7,11-Dihydroxy-8,8,10,12,16-pentamethyl-3-{(1E)-1-[2-(methyl-sulfanyl)-1,3-thiazol-4-yl]prop-1-en-2-yl}-4-oxa-17-azabicyclo[14.1.0]heptadecane-5,9-dione], the GI50 in the test on MCF-7 turned out to be 4 nM; in the test with SNB-75, 11 nM; in the test with OVCAR-8, 16 nM; in the test with MDA-MB-435, 4.5 nM. This compound showed an EC50 with Tubulin ([…]) of 5000 nM. Also, the 50% inhibitory concentration (IC50) in the test on MES SA DX (setting [2]) came out at 5.66 nM; in the test on MES SA it was 0.28 nM.
Turning to `C/C(=C\c1csc(N)n1)[C@@H]1C[C@@H]2N(CCO)[C@]2(C)CCC[C@H](C)[C@H](O)[C@@H](C)C(=O)C(C)(C)[C@@H](O)CC(=O)O1` (stereo partly drawn) [compound 15, (1S,3S,7S,10R,11S,12S,16R)-3-[(1E)-1-(2-Amino-1,3-thiazol-4-yl)prop-1-en-2-yl]-7,11-dihydroxy-17-(2-hydroxyethyl)-8,8,10,12,16-pentamethyl-4-oxa-17-azabicyclo[14.1.0]heptadecane-5,9-dione], the GI50 with MCF-7 is 330 nM; with SNB-75 it was 280 nM; in the test on NCI/ADR-RES (setting [1]) it was 3800 nM; in the test on OVCAR-8, 290 nM; in the test with MDA-MB-435, 220 nM. In the test with Tubulin ([…]), this compound displayed a half-maximal effective concentration (EC50) of 13000 nM. Further, the values for the concentration for half-maximal inhibition (IC50) with MES SA DX (setting [2]) and with MES SA were greater than 1000 nM and 36.4 nM, respectively.
Consider `C/C(=C\c1csc(CCN)n1)[C@@H]1C[C@@H]2N(CCO)[C@]2(C)CCC[C@H](C)[C@H](O)[C@@H](C)C(=O)C(C)(C)[C@@H](O)CC(=O)O1` (stereo partly drawn) [compound 20, (1S,3S,7S,10R,11S,12S,16R)-3-{(1E)-1-[2-(2-Aminoethyl)-1,3-thiazol-4-yl]prop-1-en-2-yl}-7,11-dihydroxy-17-(2-hydroxyethyl)-8,8,10,12,16-pentamethyl-4-oxa-17-azabicyclo[14.1.0]heptadecane-5,9-dione], for which the GI50 in the test with MCF-7 came to 15 nM; in the test with SNB-75, 50 nM; in the test on NCI/ADR-RES (setting [1]), 45 nM; in the test with OVCAR-8, 8.6 nM; in the test on MDA-MB-435, 3.8 nM. The compound also gave an EC50 in the test with Tubulin ([…]) of 9100 nM. Further, the half-inhibitory concentration (IC50) in the test on MES SA DX (setting [2]) is greater than 2500 nM; in the test with MES SA it was 16.1 nM.
Take `C/C(=C\c1ccccn1)[C@@H]1C[C@@H]2N(CCO)[C@]2(C)CCC[C@H](C)[C@H](O)[C@@H](C)C(=O)C(C)(C)[C@@H](O)CC(=O)O1` (stereo partly drawn) [compound 21, (1S,3S,7S,10R,11S,12S,16R)-7,11-Dihydroxy-17-(2-hydroxyethyl)-8,8,10,12,16-pentamethyl-3-[(1E)-1-(pyridin-2-yl)prop-1-en-2-yl]-4-oxa-17-azabicyclo[14.1.0]heptadecane-5,9-dione]: the GI50 with MCF-7 was determined as 250 nM; with SNB-75, 98 nM; in the test on NCI/ADR-RES (setting [1]) it was 4000 nM; in the test on OVCAR-8, 170 nM; in the test with MDA-MB-435, 30 nM. The compound further registered an EC50 in the test with Tubulin ([…]) greater than 60000 nM. The IC50 in the test on MES SA DX (setting [2]) amounted to 764 nM; in the test on MES SA, 0.685 nM.
Take `CSc1cc(/C=C(\C)[C@@H]2C[C@@H]3N(CCO)[C@]3(C)CCC[C@H](C)[C@H](O)[C@@H](C)C(=O)C(C)(C)[C@@H](O)CC(=O)O2)nn1C` (stereo partly drawn) [compound 23, (1S,3S,7S,10R,11S,12S,16R)-7,11-Dihydroxy-17-(2-hydroxyethyl)-8,8,10,12,16-pentamethyl-3-{(1E)-1-[1-methyl-5-(methylsulfanyl)-1H-pyrazol-3-yl]prop-1-en-2-yl}-4-oxa-17-azabicyclo[14.1.0]heptadecane-5,9-dione]: the GI50 was 78 nM with MCF-7, 10 nM in the test on SNB-75, 10 nM in the test on OVCAR-8 and 12 nM in the test with MDA-MB-435. The compound also returned an EC50 with Tubulin ([…]) of 4600 nM. Besides, the IC50 in the test on MES SA DX (setting [2]) stood at 37.8 nM; with MES SA, 0.22 nM.
On to `C/C(=C\c1nc2ccccc2s1)[C@@H]1C[C@@H]2N(CCO)[C@]2(C)CCC[C@H](C)[C@H](O)[C@@H](C)C(=O)C(C)(C)[C@@H](O)CC(=O)O1` (stereo partly drawn) [compound 24, (1S,3S,7S,10R,11S,12S,16R)-3-[(1E)-1-(1,3-Benzothiazol-2-yl)prop-1-en-2-yl]-7,11-dihydroxy-17-(2-hydroxyethyl)-8,8,10,12,16-pentamethyl-4-oxa-17-azabicyclo[14.1.0]heptadecane-5,9-dione], for which the GI50 was found to be 11 nM in the test on MCF-7; 12 nM in the test with SNB-75; 630 nM in the test with NCI/ADR-RES (setting [1]); 23 nM in the test on OVCAR-8; 3.5 nM in the test with MDA-MB-435. The EC50 in the test on Tubulin ([…]) was found to be 7900 nM. The concentration for half-maximal inhibition (IC50) with MES SA DX (setting [2]) turned out to be 1.32 nM; in the test on MES SA, 0.18 nM.

The term EC50 denotes the concentration that produces a half-maximal response. A higher EC50 goes with a need for much substance. The term IC50 denotes the midpoint of a concentration-inhibition curve.

The values above are taken from patent US20210238187A1, “AZIRIDINE CONTAINING EPOTHILONE ANALOGS, METHODS OF SYNTHESIS, METHODS OF TREATMENT, AND DRUG CONJUGATES” (WILLIAM MARSH RICE UNIVERSITY, priority 2017, published 2021).
